Test results reported in US20230407243A1, “GENETIC PLATFORM TO INVESTIGATE THE FUNCTIONS OF BACTERIAL DRUG EFFLUX PUMPS” (priority 2022, published 2023).
Like-named read-outs stand apart in the source and are kept apart here.

Tests used:
Assay type in all cases: cell-based, Escherichia coli
EKO-35 araC::acrEF = test: MIC susceptibility profiling, efflux platform; conditions: for Fold change of MICs: EKO-35 araC::acrEF compared to EKO-35; for MIC: Escherichia coli, Table 13A, non-porinated, technical duplicate, read-out: Minimum Inhibitory Concentration, EKO-35 araC::acrEF
Summary of the method: (§1)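 Overnight LB cultures resuspended in PBS to OD600 ~1.0, diluted 1/2000 into MHB II, and added to 2-fold serial compound dilutions in duplicate with DMSO controls. Incubated 18 h at 37° C. with 900 rpm shaking; OD600 read before and after, background subtracted, to derive MIC.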

EKO-35 araC::emrAB = test: MIC susceptibility profiling, efflux platform; conditions: for Fold change of MICs: EKO-35 araC::emrAB compared to EKO-35; for MIC: Escherichia coli, Table 13B, non-porinated, technical duplicate, read-out: Minimum Inhibitory Concentration, EKO-35 araC::emrAB
Summary of the method: as §1

EKO-35 araC::macAB = test: MIC susceptibility profiling, efflux platform; conditions: for Fold change of MICs: EKO-35 araC::macAB compared to EKO-35; for MIC: Escherichia coli, Table 13B, non-porinated, technical duplicate, read-out: Minimum Inhibitory Concentration, EKO-35 araC::macAB
Summary of the method: as §1

wild-type (WT) K-12-Pore = test: microbe, parasite or virus in culture; conditions: Escherichia coli, technical duplicate
Summary of the method: (§2)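 MIC values come from background-corrected OD600 readings (pre-incubation OD subtracted) after 18 h at 37 °C and 900 rpm in MHB II. Compounds were tested in duplicate as 2-fold dilutions. The inoculum came from 18 h LB cultures adjusted to OD600 ~1.0 and diluted 1/2000, and the pore-bearing strains were vancomycin-checked beforehand.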

ΔtolC-Pore = test: microbe, parasite or virus in culture; conditions: for MIC: Escherichia coli, 18 h, read-out: Minimum inhibitory concentration, ΔtolC-Pore; for Minimum inhibitory concentration (MIC), Pore ΔtolC: Table 10, with pore, technical duplicate
Summary of the method: as §2

[1] = system: wild-type E. coli K-12 str. BW25113; test: microbe, parasite or virus in culture; conditions: Escherichia coli, BW25113, technical duplicate
Summary of the method: as §1

E. coli ΔtolC = test: microbe, parasite or virus in culture; conditions: for MIC: Escherichia coli, 18 h, read-out: Minimum Inhibitory Concentration, ΔtolC; for Minimum inhibitory concentration (MIC), ΔtolC: Table 10, without pore, technical duplicate
Summary of the method: as §1

E. coli EKO-35 = test: microbe, parasite or virus in culture; conditions: for Fold change of MICs: EKO-35 compared to EKO-35 (reference); for MIC: Escherichia coli, EKO35, technical duplicate
Summary of the method: as §1

EKO-35 araC::acrEF Pore = test: MIC susceptibility profiling, porinated efflux platform; conditions: for Fold changes of MICs: EKO-35 araC::acrEF Pore compared to EKO-35-Pore; for MIC: Escherichia coli, Table 14A, porinated, technical duplicate, read-out: Minimum inhibitory concentration, EKO-35 araC::acrEF Pore
Summary of the method: as §2

[2] = system: EKO-35 araC::acrBD408A Pore; test: as above; conditions: for Fold changes of MICs: EKO-35 araC::acrBD408A Pore compared to EKO-35-Pore; for MIC: Escherichia coli, EKO-35 araC::acrBD408A Pore, technical duplicate, read-out: Minimum inhibitory concentration
Summary of the method: as §2

EKO-35 araC::macAB Pore = test: as above; conditions: for Fold changes of MICs: EKO-35 araC::macAB Pore compared to EKO-35-Pore; for MIC: Escherichia coli, EKO-35 araC::macAB Pore, technical duplicate, read-out: Minimum inhibitory concentration
Summary of the method: as §2

EKO-35 araC::acrB Pore = test: as above; conditions: for Fold changes of MICs: EKO-35 araC::acr-B Pore compared to EKO-35-Pore
Summary of the method: as §2

EKO-35 araC::acrD Pore = test: as above; conditions: for Fold changes of MICs: EKO-35 araC::acrD Pore compared to EKO-35-Pore; for MIC: Escherichia coli, Table 14A, porinated, technical duplicate, read-out: Minimum inhibitory concentration, EKO-35 araC::acrD Pore
Summary of the method: as §2

EKO-35 araC::mexCD Pore = test: as above; conditions: for Fold changes of MICs: EKO-35 araC::mexCD Pore compared to EKO-35-Pore; for MIC: Escherichia coli, EKO-35 araC::mexCD Pore, technical duplicate, read-out: Minimum inhibitory concentration
Summary of the method: as §2

EKO-35 araC::emrAB Pore = test: as above; conditions: for Fold changes of MICs: EKO-35 araC::emrAB Pore compared to EKO-35-Pore; for MIC: Escherichia coli, EKO-35 araC::emrAB Pore, technical duplicate, read-out: Minimum inhibitory concentration
Summary of the method: as §2

EKO-35 araC::emrKY Pore = test: as above; conditions: for Fold changes of MICs: EKO-35 araC::emrKY Pore compared to EKO-35-Pore; for MIC: Escherichia coli, EKO-35 araC::emrKY Pore, technical duplicate, read-out: Minimum inhibitory concentration
Summary of the method: as §2

EKO-35 araC::mdtBC Pore = test: as above; conditions: for Fold changes of MICs: EKO-35 araC::mdtBC Pore compared to EKO-35-Pore; for MIC: Escherichia coli, EKO-35 araC::mdtBC Pore, technical duplicate, read-out: Minimum inhibitory concentration
Summary of the method: as §2

EKO-35 araC::mdtEF Pore = test: as above; conditions: for Fold changes of MICs: EKO-35 araC::mdtEF Pore compared to EKO-35-Pore; for MIC: Escherichia coli, Table 14A, porinated, technical duplicate, read-out: Minimum inhibitory concentration, EKO-35 araC::mdtEF Pore
Summary of the method: as §2

EKO-35-Pore = test: MIC susceptibility profiling, porinated strain; conditions: for Fold changes of MICs: EKO-35-Pore compared to EKO-35-Pore (reference); for MIC: Escherichia coli
Summary of the method: as §2

[3] = Table 10, with pore, read-out: Minimum inhibitory concentration (MIC), Pore K-12
[4] = Table 10, without pore, read-out: Minimum inhibitory concentration (MIC), K-12
[5] = Table 13A, non-porinated, read-out: Minimum Inhibitory Concentration, K-12
[6] = Table 10, without pore, read-out: Minimum inhibitory concentration (MIC), EKO-35
[7] = Table 13A, non-porinated, read-out: Minimum Inhibitory Concentration, EKO-35
[8] = Table 10, with pore, technical duplicate, read-out: Minimum inhibitory concentration (MIC), Pore EKO-35
[9] = Table 14A, porinated, technical duplicate, read-out: Minimum inhibitory concentration, EKO-35-Pore
[10] = Table 14A, porinated, read-out: Minimum inhibitory concentration, K-12 (WT)-Pore

## CC1(C)S[C@@H]2[C@H](NC(=O)[C@H](N)c3ccccc3)C(=O)N2[C@H]1C(=O)O [ampicillin]
EKO-35 araC::acrEF
  Fold change of MICs: 2 fold
  MIC: 50 µg/mL
EKO-35 araC::emrAB
  Fold change of MICs: 1 fold
  MIC: 25 µg/mL
EKO-35 araC::macAB
  Fold change of MICs: 1 fold
wild-type (WT) K-12-Pore; [3]
  MIC: 12.5 µg/mL
ΔtolC-Pore
  MIC: 1.56 µg/mL
  Minimum inhibitory concentration (MIC), Pore ΔtolC: 1.563 µg/mL
[1]; [4]
  MIC: 100 µg/mL
[1]; [5]
  MIC: 100 µg/mL
E. coli ΔtolC
  MIC: 25 µg/mL
  Minimum inhibitory concentration (MIC), ΔtolC: 25 µg/mL
E. coli EKO-35
  Fold change of MICs: 1 fold
E. coli EKO-35; [6]
  MIC: 25 µg/mL
E. coli EKO-35; [7]
  MIC: 25 µg/mL
EKO-35 araC::acrEF Pore
  Fold changes of MICs: 2 fold
  MIC: 3.12 µg/mL
[2]
  Fold changes of MICs: 1 fold
  MIC: 0.781 µg/mL
EKO-35 araC::macAB Pore
  Fold changes of MICs: 1 fold
  MIC: 1.56 µg/mL
EKO-35 araC::acrB Pore
  Fold changes of MICs: 8 fold
EKO-35 araC::acrD Pore
  Fold changes of MICs: 16 fold
  MIC: 25 µg/mL
EKO-35 araC::mexCD Pore
  Fold changes of MICs: 1 fold
  MIC: 1.56 µg/mL
EKO-35 araC::emrAB Pore
  Fold changes of MICs: 1 fold
  MIC: 0.781 µg/mL
EKO-35 araC::emrKY Pore
  Fold changes of MICs: 2 fold
  MIC: 3.12 µg/mL
EKO-35 araC::mdtBC Pore
  Fold changes of MICs: 1 fold
  MIC: 0.781 µg/mL
EKO-35 araC::mdtEF Pore
  Fold changes of MICs: 1 fold
  MIC: 1.56 µg/mL
EKO-35-Pore
  Fold changes of MICs: 1 fold
EKO-35-Pore; [8]
  MIC: 1.56 µg/mL
EKO-35-Pore; [9]
  MIC: 1.56 µg/mL

## CC[C@H]1OC(=O)[C@H](C)[C@@H](O[C@H]2C[C@@](C)(OC)[C@@H](O)[C@H](C)O2)[C@H](C)[C@@H](O[C@@H]2O[C@H](C)C[C@H](N(C)C)[C@H]2O)[C@](C)(O)C[C@@H](C)CN(C)[C@H](C)[C@@H](O)[C@]1(C)O [azithromycin]
EKO-35 araC::acrEF
  Fold change of MICs: 8 fold
  MIC: 6.25 µg/mL
EKO-35 araC::emrAB
  Fold change of MICs: 1 fold
  MIC: 0.781 µg/mL
EKO-35 araC::macAB
  Fold change of MICs: 4 fold
  MIC: 3.12 µg/mL
EKO-35 araC::macAB; MacAB
  efflux pump-mediated resistance vs EKO-35: specific
wild-type (WT) K-12-Pore; [3]
  MIC: 0.391 µg/mL
wild-type (WT) K-12-Pore; [10]
  MIC: 0.391 µg/mL
ΔtolC-Pore
  MIC: 0.049 µg/mL
  Minimum inhibitory concentration (MIC), Pore ΔtolC: 0.049 µg/mL
[1]; [4]
  MIC: 6.25 µg/mL
[1]; [5]
  MIC: 6.25 µg/mL
E. coli ΔtolC
  MIC: 0.781 µg/mL
  Minimum inhibitory concentration (MIC), ΔtolC: 0.781 µg/mL
E. coli EKO-35
  Fold change of MICs: 1 fold
E. coli EKO-35; [6]
  MIC: 0.781 µg/mL
E. coli EKO-35; [7]
  MIC: 0.781 µg/mL
EKO-35 araC::acrEF Pore
  Fold changes of MICs: 4 fold
  MIC: 0.195 µg/mL
[2]
  Fold changes of MICs: 2 fold
  MIC: 0.098 µg/mL
EKO-35 araC::macAB Pore
  Fold changes of MICs: 2 fold
  MIC: 0.098 µg/mL
EKO-35 araC::macAB Pore; MacAB with a porinated OM
  fold increase of MIC over EKO-35: 2 fold
EKO-35 araC::acrB Pore
  Fold changes of MICs: 4 fold
EKO-35 araC::acrB Pore; Escherichia coli, Table 14A, porinated, technical duplicate, read-out: Minimum inhibitory concentration, EKO-35 araC::acrB Pore
  MIC: 0.195 µg/mL
EKO-35 araC::acrD Pore
  Fold changes of MICs: 1 fold
  MIC: 0.024 µg/mL
EKO-35 araC::mexCD Pore
  Fold changes of MICs: 2 fold
  MIC: 0.098 µg/mL
EKO-35 araC::mexCD Pore; MexCD, OM compromised
  efflux pump-mediated resistance vs EKO-35-Pore: no longer associated MexCD with resistance
EKO-35 araC::emrAB Pore
  Fold changes of MICs: 1 fold
  MIC: 0.049 µg/mL
EKO-35 araC::emrKY Pore
  Fold changes of MICs: 1 fold
  MIC: 0.024 µg/mL
EKO-35 araC::mdtBC Pore
  Fold changes of MICs: 1 fold
  MIC: 0.049 µg/mL
EKO-35 araC::mdtEF Pore
  Fold changes of MICs: 4 fold
  MIC: 0.195 µg/mL
EKO-35-Pore
  Fold changes of MICs: 1 fold
EKO-35-Pore; [8]
  MIC: 0.049 µg/mL
EKO-35-Pore; [9]
  MIC: 0.049 µg/mL

## O=C(N[C@H](CO)[C@H](O)c1ccc([N+](=O)[O-])cc1)C(Cl)Cl [chloramphenicol]
EKO-35 araC::acrEF
  Fold change of MICs: 2 fold
  MIC: 1.56 µg/mL
EKO-35 araC::emrAB
  Fold change of MICs: 1 fold
  MIC: 0.781 µg/mL
EKO-35 araC::macAB
  Fold change of MICs: 1 fold
  MIC: 0.781 µg/mL
wild-type (WT) K-12-Pore; [3]
  MIC: 3.12 µg/mL
wild-type (WT) K-12-Pore; [10]
  MIC: 3.12 µg/mL
ΔtolC-Pore
  MIC: 0.781 µg/mL
  Minimum inhibitory concentration (MIC), Pore ΔtolC: 0.781 µg/mL
[1]; [4]
  MIC: 6.5 µg/mL
[1]; [5]
  MIC: 6.25 µg/mL
E. coli ΔtolC
  MIC: 1.56 µg/mL
  Minimum inhibitory concentration (MIC), ΔtolC: 1.563 µg/mL
E. coli EKO-35
  Fold change of MICs: 1 fold
E. coli EKO-35; [6]
  MIC: 0.781 µg/mL
E. coli EKO-35; [7]
  MIC: 0.781 µg/mL
EKO-35 araC::acrEF Pore
  Fold changes of MICs: 1 fold
  MIC: 0.781 µg/mL
[2]
  Fold changes of MICs: 1 fold
  MIC: 0.781 µg/mL
EKO-35 araC::macAB Pore
  Fold changes of MICs: 1 fold
  MIC: 0.781 µg/mL
EKO-35 araC::acrB Pore
  Fold changes of MICs: 4 fold
EKO-35 araC::acrD Pore
  Fold changes of MICs: 1 fold
  MIC: 0.781 µg/mL
EKO-35 araC::mexCD Pore
  Fold changes of MICs: 1 fold
  MIC: 0.781 µg/mL
EKO-35 araC::emrAB Pore
  Fold changes of MICs: 1 fold
  MIC: 0.781 µg/mL
EKO-35 araC::emrKY Pore
  Fold changes of MICs: 1 fold
  MIC: 0.391 µg/mL
EKO-35 araC::mdtBC Pore
  Fold changes of MICs: 1 fold
  MIC: 0.781 µg/mL
EKO-35 araC::mdtEF Pore
  Fold changes of MICs: 1 fold
  MIC: 0.781 µg/mL
EKO-35-Pore
  Fold changes of MICs: 1 fold
EKO-35-Pore; read-out: Minimum inhibitory concentration (MIC), Pore EKO-35
  MIC: 0.781 µg/mL
EKO-35-Pore; [9]
  MIC: 0.781 µg/mL
